Assay results as given in patent publication US6051406A, “Keratan sulfate 6-sulfotransferase and DNA coding for the same” (Seikagaku Kogyo Kabushiki Kaish, priority 1996, dated 2000).

Experiments:
[1] = target: T1, partially purified KSST (KSGal6ST) (Homo sapiens, UniProt O43916); experiment: Effect of added salts and dithiothreitol on KSST activity (Reaction Mixture II); type: biochemical; set-up: made in house; host or cells: COS-7 cells transfected with pCXNKSST (pCXN2 vector); extract partially purified over DEAE-Sephadex A-50 (non-adsorbed fraction) and Heparin-Sepharose CL-6B; details: for Sulfotransferase activity with added salt: salt at final concentration of 5 mM instead of CaCl2, keratan sulfate receptor, Reaction Mixture II
T1 sequence (O43916 1-411): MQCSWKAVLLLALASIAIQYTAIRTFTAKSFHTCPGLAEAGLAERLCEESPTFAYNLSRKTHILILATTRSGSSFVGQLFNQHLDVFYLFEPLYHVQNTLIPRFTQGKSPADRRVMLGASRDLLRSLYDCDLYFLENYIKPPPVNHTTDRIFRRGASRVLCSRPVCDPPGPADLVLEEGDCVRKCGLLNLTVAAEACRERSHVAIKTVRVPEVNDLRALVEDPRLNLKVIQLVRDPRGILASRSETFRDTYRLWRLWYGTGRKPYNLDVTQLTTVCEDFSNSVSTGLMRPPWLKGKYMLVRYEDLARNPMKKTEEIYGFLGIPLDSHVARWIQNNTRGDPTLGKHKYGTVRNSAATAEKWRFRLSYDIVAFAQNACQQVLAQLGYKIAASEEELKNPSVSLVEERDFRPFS
Protocol: (§5) Characterization of the KSST partially purified as described above was performed.

[2] = target: T1, partially purified KSST (KSGal6ST); details: read-out: Km value for PAPS (sulfate group donor)
Protocol: as §5

[3] = tested on: crude extract of COS-7 cells with pCXNKSST introduced; experiment: Sulfotransferase activity for various glycosaminoglycan receptors, crude extract (Reaction Mixture II); type: biochemical; details: 25 nmol glycosaminoglycan as receptor
Protocol: (§1) Activity for various kinds of glycosaminoglycans as the substrate was assayed by using 25 nmol (as galactosamine for chondroitin sulfate (A and C) and dermatan sulfate, and as glucosamine for keratan sulfate and CDSNS-heparin (completely desulfated, N-sulfated heparin, available from Seikagaku Corp.)) of glycosaminoglycan instead of keratan sulfate.
(§2) In the above both cases, the reaction mixtures were incubated at 37° C. for 20 minutes, and the reaction was stopped by immersing reaction tubes into boiling water for one minute.
(§3) After stopping the reaction, 0.1 μmol (as glucuronic acid) of chondroitin sulfate A was added as a carrier, and 3 volumes of ethanol containing 1.3% potassium acetate was added to the reaction mixture to precipitate ^35 S-labeled polysaccharide. The reaction mixture was centrifuged at 10,000×g for 10 minutes, and the resulting precipitates were dissolved in 70 μl of water. The resulting solution (50 μl) was loaded on a desalting column equilibrated with 0.1 M NH4 HCO3, and the eluted fractions containing the ^35 S-labeled polysaccharide were collected. Scintillation cocktail (1 ml, Clearsol, Nakarai Tesque) was added to 200 μl of each of the obtained fractions, and incorporation of ^35 S into the polysaccharide was determined by assaying ^35 S-radioactivity. Activity catalyzing transfer of 1 pmol sulfate group/minute was defined as 1 unit.
(§4) The adsorbed fraction was eluted with Buffer A containing 0.5 M NaCl, and the eluate was dialyzed against Buffer A containing 50 mM NaCl. The dialysate was used as KSST not containing CST. […] For the activity assay, 25 nmol (as galactosamine for chondroitin, chondroitin sulfate A, chondroitin sulfate C and dermatan sulfate, and as glucosamine for keratan sulfate and CDSNS-heparin) of glycosaminoglycan was used instead of the keratan sulfate contained in the standard reaction mixture.

[4] = target: T1, partially purified KSST (KSGal6ST); experiment: Sulfotransferase activity for various glycosaminoglycan receptors, partially purified KSST (Reaction Mixture II); type: biochemical; set-up: made in house; host or cells: COS-7 cells transfected with pCXNKSST (pCXN2 vector); extract partially purified over DEAE-Sephadex A-50 (non-adsorbed fraction) and Heparin-Sepharose CL-6B; details: for Sulfotransferase activity, Partially purified product: 25 nmol glycosaminoglycan as receptor, Reaction Mixture II, after Heparin-Sepharose CL-6B; for sulfotransferase activity for this receptor relative to keratan sulfate sulfotransferase activity after the purification: partially purified product
Protocol: as §1, §2, §3
Homogenate of COS-7 cells with pCXNKSST introduced from 80 dishes (224 mg as protein) was applied to a DEAE-Sephadex A-50 column (Pharmacia, 2.2×13 cm) equilibrated with Buffer A. The column was washed with 500 ml of Buffer A , and then the adsorbed fraction was eluted with Buffer A containing 0.5 M NaCl.
as §4

[5] = tested on: sulfotransferase activity; experiment: Sulfotransferase activity of pCXNKSST-transfected COS-7 cells with other sulfate group receptors; type: cell-based; details: COS-7 cells with KSST cDNA in the correct direction, substance used as sulfate group receptor
Description: This cDNA was introduced into a plasmid (pCXN2) (a recombinant plasmid where the direction of the promoter is conformed with that of the cDNA was designated as pCXNKSST, and recombinant plasmid where the cDNA was inserted in a reversed direction was designated as pCXNKSST2), and COS-7 cells were transfected with the obtained plasmids by the method described above. […] When dermatan sulfate, heparan sulfate, or completely desulfated, N-sulfated heparin (CDSNS-heparin) was used as the sulfate group receptor, no increase of sulfotransferase activity was observed.

[6] = substrate: Nc1ncnc2c1ncn2[C@@H]1O[C@H](COP(=O)(O)OS(=O)(=O)O)[C@@H](OP(=O)(O)O)[C@H]1O; experiment: purified protein, by the assay type

O[C@H](CS)[C@H](O)CS (racemic) [Dithiothreitol]
effect on KSST activity ([1]; concentration up to 10 mM): did not affect the KSST activity

[Ba+2].[Cl-].[Cl-] [BaCl2]
Sulfotransferase activity with added salt [1]: 21.0 pmol/minute/mg protein

[Ca+2].[Cl-].[Cl-] [CaCl2]
optimum concentration for KSST activity [1]: about 10 mM
Sulfotransferase activity with added salt [1]: 26.2 pmol/minute/mg protein
effect on KSST activity ([1]; salts at 5 mM): most strongly enhanced the KSST activity

[Cl-].[Cl-].[Co+2] [CoCl2]
Sulfotransferase activity with added salt [1]: 24.6 pmol/minute/mg protein

[Cl][Cu][Cl] [CuCl2]
Sulfotransferase activity with added salt [1]: 10.0 pmol/minute/mg protein

O=S(=O)([O-])[O-].[Fe+2] [FeSO4]
Sulfotransferase activity with added salt [1]: 3.0 pmol/minute/mg protein

[Cl-].[Cl-].[Mg+2] [MgCl2]
Sulfotransferase activity with added salt [1]: 18.8 pmol/minute/mg protein

[Cl][Mn][Cl] [MnCl2]
Sulfotransferase activity with added salt [1]: 28.0 pmol/minute/mg protein
effect on KSST activity ([1]; salts at 5 mM): most strongly enhanced the KSST activity

[Cl][Ni][Cl] [NiCl2]
Sulfotransferase activity with added salt [1]: 10.0 pmol/minute/mg protein

Nc1ncnc2c1ncn2[C@@H]1O[C@H](COP(=O)(O)OS(=O)(=O)O)[C@@H](OP(=O)(O)O)[C@H]1O [PAPS, 3'-phosphoadenosine 5'-phosphosulfate]
Km [2]: ~0.2 µM

[Cl-].[Cl-].[Sr+2] [SrCl2]
Sulfotransferase activity with added salt [1]: 21.6 pmol/minute/mg protein

[Cl-].[Cl-].[Zn+2] [ZnCl2]
Sulfotransferase activity with added salt [1]: 1.5 pmol/minute/mg protein

Chondroitin
Sulfotransferase activity, Crude extract [3]: 0.016 pmol/minute/mg protein × 10^-2
Sulfotransferase activity, Partially purified product [4]: 0.03 pmol/minute/mg protein × 10^-2
sulfotransferase activity for this receptor relative to keratan sulfate sulfotransferase activity after the purification [4]: ≤ 2%

Chondroitin sulfate A
Sulfotransferase activity, Crude extract [3]: 0.009 pmol/minute/mg protein × 10^-2
Sulfotransferase activity, Partially purified product [4]: 0.03 pmol/minute/mg protein × 10^-2

Chondroitin sulfate C
Sulfotransferase activity, Crude extract [3]: 0.005 pmol/minute/mg protein × 10^-2
Sulfotransferase activity, Partially purified product [4]: 0.02 pmol/minute/mg protein × 10^-2

Dermatan sulfate
increase of sulfotransferase activity with this sulfate group receptor [5]: no increase
Sulfotransferase activity, Crude extract [3]: 0.005 pmol/minute/mg protein × 10^-2
Sulfotransferase activity, Partially purified product [4]: 0.02 pmol/minute/mg protein × 10^-2

Keratan sulfate
Sulfotransferase activity, Crude extract [3]: 0.168 pmol/minute/mg protein × 10^-2
Sulfotransferase activity, Partially purified product [4]: 2.51 pmol/minute/mg protein × 10^-2

Protamine Chloride
Sulfotransferase activity with added salt [1]: 8.8 pmol/minute/mg protein

completely desulfated, N-sulfated heparin [CDSNS-heparin]
increase of sulfotransferase activity with this sulfate group receptor [5]: no increase
Sulfotransferase activity, Crude extract [3]: 0.109 pmol/minute/mg protein × 10^-2
Sulfotransferase activity, Partially purified product [4]: 0.05 pmol/minute/mg protein × 10^-2
sulfotransferase activity for this receptor relative to keratan sulfate sulfotransferase activity after the purification [4]: ≤ 2%

heparan sulfate
increase of sulfotransferase activity with this sulfate group receptor [5]: no increase

B1: partially purified KSST (KSGal6ST) (Homo sapiens) (protein)
chain: MQCSWKAVLLLALASIAIQYTAIRTFTAKSFHTCPGLAEAGLAERLCEESPTFAYNLSRKTHILILATTRSGSSFVGQLFNQHLDVFYLFEPLYHVQNTLIPRFTQGKSPADRRVMLGASRDLLRSLYDCDLYFLENYIKPPPVNHTTDRIFRRGASRVLCSRPVCDPPGPADLVLEEGDCVRKCGLLNLTVAAEACRERSHVAIKTVRVPEVNDLRALVEDPRLNLKVIQLVRDPRGILASRSETFRDTYRLWRLWYGTGRKPYNLDVTQLTTVCEDFSNSVSTGLMRPPWLKGKYMLVRYEDLARNPMKKTEEIYGFLGIPLDSHVARWIQNNTRGDPTLGKHKYGTVRNSAATAEKWRFRLSYDIVAFAQNACQQVLAQLGYKIAASEEELKNPSVSLVEERDFRPFS
Km [6]: 0.2 µM
